Source: patent publication US20030166528A1, “Antifungal compound” (priority 2000, published 2003)
Like-named read-outs stand apart in the source and are kept apart here. Non-standard residues stand in square brackets, D forms with d. Residues, ends and D or L forms follow the SMILES beside them. 1Nal = N[C@@H](Cc1cccc2ccccc12)C(=O)O; 2Thi = N[C@@H](Cc1cccs1)C(=O)O; Nva = CCC[C@H](N)C(=O)O

Tests used:
[1] = assay type: in vitro ADME; conditions: for half-life: 37° C., 250 μg/mL, read-out: biological half life
Protocol: XMP.676 was also tested for stability using a bioassay generally according to Example 5 of U.S. Pat. No. 5,858,974, wherein the peptide is incubated with SDB, RPMI, mouse serum or human serum for varying amounts of time and the resulting serum-treated product is tested for retention of antifungal activity against C. albicans SLU-1 in a FACScan assay as follows.
A solution of XMP.676 (0.5 mg/mL) was mixed with medium or fresh mouse serum or fresh human serum at a 1:1 ratio to make a 250 μg/mL solution. The resulting mixture was incubated at 37° C. Small sample volumes were removed from the incubation mixture at specific times and placed at −20° C.
Antifungal activity of the peptide/serum (or peptide/media) samples was tested as follows. Mid-log phase C. albicans were suspended in SDB at a concentration of about 1×10^6 CFU/ml. The suspension was aliquoted in 1 mL portions into polystyrene tubes. The peptide/serum mixture sample were thawed and 50 μL of each sample was aliquoted into each tube and incubated at 37° C. for various times. The cells were then pelleted and resuspended in a solution of 10 μg/mL propidium iodide/PBS and incubated for 5 minutes. Propidium iodide is a fluorescent exclusionary dye that is only taken up by the cell when cell death has occurred. Cells were analyzed for fluorescence on a FACScan instrument using cells treated with 70% ethanol as the control for 100% death, and untreated cells for zero death.

[2] = in vivo
[3] = assay type: in vivo, rabbits
Protocol: Increasing doses of various […], or via intraperitoneal injection, to determine the maximum dose of peptide that could be administered without causing observable symptoms such as respiratory distress and loss of righting reflex. […] […] When administered via rapid intravenous injection, doses of XMP.676 higher than 2.5 mg/kg were not well tolerated, but slow injection increased the well tolerated dose two-fold to 5.0 mg/kg. When administered intraperitoneally, XMP.676 was well tolerated at doses up to and including 15.0 mg/kg. […] XMP.676 was also tested in cytarabine-treated conscious rabbits (wherein 30 mg/kg cytarabine was administered intravenously daily for 5 days prior to administration of XMP.676).

[4] = tested on: C. albicans SLU-1; assay type: cell-based; conditions: radial diffusion assay
Protocol: XMP.676 was tested for in vitro antifungal activity in radial diffusion assays against C. albicans SLU-1 generally according to Examples 2 and 3 of U.S. Pat. No. 5,858,974.

[5] = in vivo; conditions: DBA/2, mouse, iv, well tolerated dose
[6] = tested on: C. albicans; assay type: in vivo, mice; conditions: 5 mg/kg twice daily for 14 days, intraperitoneal; preliminary test
[7] = tested on: C. albicans; assay type: cell-based; conditions: on C. albicans, with fluconazole and amphotericin-B
Protocol: (§1) In addition, checkerboard assays were used to evaluate synergy, additivity or antagonism between XMP.676 and fluconazole, amphotericin B or itraconazole. These assays were carried out on both C. albicans and A. fumigatus. Results from these experiments were used to calculate fractional inhibitory concentration (FIC) values. […] At lower concentrations of both compounds, additional synergy may be observed.

[8] = tested on: A. fumigatus; assay type: cell-based; conditions: on A. fumigatus, with tested concentrations of amphotericin-B and itraconazole
Protocol: as §1

[9] = tested on: Aspergillus fumigatus; assay type: in vivo, mice
Protocol: XMP.676 was additionally tested in cyclosporin-A (CSA) immunosuppressed mice systemically infected with about 5×10^5 CFU Aspergillus fumigatus. Specifically, mice were immunosuppressed by IP injection of 50 mg/kg CSA at day-1. CSA injections continued daily for 9 consecutive days (to day 8). On Day 0, animals received the second CSA injection immediately followed by an inoculum of A. fumigatus in a 0.25 mL volume via a lateral tail injection. Treatment with XMP.676 began one hour following fungal challenge at doses of 0.3, 1.0, 3.0 or 10.0 mg/kg IP, was repeated one day later, and then continued q.o.d. for a total of 7 treatments (Days 0, 1, 3, 5, 7, 9, 11). One group was treated with saline as a control, and another group received 1.0 mg/kg amphotericin B for comparison. Mortality was recorded for 28 days. […] XMP.676 is also be tested in the absence of immunosuppression with CSA.

[10] = tested on: C. albicans SLU-1; assay type: in vivo, DBA/2 mice
Protocol: XMP.676 was tested for in vivo antifungal activity in mice with systemic C. albicans infection, as measured by effect on mortality, generally according to Example 4 of U.S. Pat. No. 5,858,974.
Briefly described, DBA/2 mice were inoculated with an IV injection of approximately 7×10^4 CFU C. albicans SLU-1. Desired doses of XMP.676 were prepared from a stock solution of 1 mg/mL XMP.676 in a 0.9% saline solution. Treatment with XMP.676, other antifungal agents or saline via either IV or IP routes was initiated immediately after fungal challenge. Subsequent treatments were administered q.o.d. through day 15. Mortality was recorded daily for 28 days.

In the case of `CCC[C@H](NC(=O)[C@H](CCC(N)=O)NC(=O)[C@@H](NC(=O)[C@H](CCC)NC(=O)[C@H](Cc1cccc2ccccc12)NC(=O)[C@H](N)CCCCN)[C@@H](C)CC)C(=O)N[C@H](C(=O)N[C@@H](Cc1cccs1)C(=O)N[C@H](CCCCN)C(=O)N[C@H](CCCCN)C(N)=O)C(C)C` [XMP.676, LysD-(Naph-1-Ala)-Norvaline-Ile-Gln-Norvaline-Val-(Thienyl-Ala)-LysD-LysD] (H-[dK][1Nal][Nva]IQ[Nva]V[2Thi][dK][dK]-NH2), the “stability in microbial media” value ([1]; all types of microbial media examined (SDB, RPMI)) is reported as “excellent stability”, the half-life ([1]; human serum) is reported as greater than 3 h and the half-life ([1]; mouse serum) is reported as greater than 3 h. For the same compound, the well tolerated dose ([2]; DBA/2, mouse, iv) was 5.0 mg/kg, the well tolerated doses ([2]; mouse, ip) was no more than 15.0 mg/kg and the adverse events ([3]; 2.5 mg/kg IV, 30 minute single infusion) was “did not result in any significant adverse events”. The adverse events ([3]; doses higher than 2.5 mg/kg IV infusion) was “resulted in mortality”, the “lowest minimum inhibitory concentration (MIC) observed” value [4] was 171 pmol and the MTD [5] was 2.5 mg/kg. The “reduction in mortality compared to saline control” value [6] was “did not provide a reduction in mortality”, the “synergy, additivity or antagonism (FIC)” value [7] was “strong additivity or synergy” and the “synergy, additivity or antagonism (FIC)” value [8] was “additivity”. For the same compound, the reduction in mortality ([9]; 1.0 mg/kg IP q.o.d., p=0.0003, 28 days) was “highly statistically significant reduction in mortality”, the reduction in mortality ([9]; 3.0 mg/kg IP) was “no reduction in mortality” and the reduction in mortality ([9]; 10.0 mg/kg IP) was “no reduction in mortality”. For the same compound, the reduction in mortality ([10]; 0.5 mg/kg IV q.o.d., p<0.001, 28 days) was “statistically significant reduction in mortality”, the reduction in mortality ([10]; 1.0 mg/kg IV q.o.d., p=0.019, 28 days) was “reduction in mortality” and the reduction in mortality ([10]; 2.5 mg/kg IV q.o.d., all five experiments (p=0.005, p<0.001, p<0.001, p=0.002, p=0.015)) was “statistically significant reduction in mortality”. For the same compound, the reduction in mortality ([10]; 5 mg/kg IP q.o.d. or q.d., three of four experiments (p=0.0001, p=0.012, p=0.018)) was “statistically significant reduction in mortality”, the “protection, slow injection relative to rapid bolus injection” value ([10]; IV, slow (approximately 20 seconds) vs rapid (less than about 5 seconds), 2.5 mg/kg in FIG. 2) was “greater delay in onset of death and greater protection” and the “benefit of intravenous treatment q.o.d. versus q.d. or b.i.d.” value ([10]; intravenous) was “greater benefit”.
